Assay results: patent publication US20240279710A1, “FLUORESCENT PROBES” (TOHOKU TECHNO ARCH CO., LTD., priority 2021, published 2024)

Legend:
[1] = Optical characteristics: absorption and fluorescence spectrum at each pH; format: physicochemical; conditions: 10 mM phosphate buffer, pH 2 to 11, 1 μM probe, 1% DMSO, excitation 490 nm; neutral condition
Experimental: The absorption spectrum and fluorescence spectrum of Compound 19 at each pH were each measured. Specifically, a measurement solution was prepared by adding a solution (0.1 mM) of Compound 19 in DMSO to a 10 mM phosphate buffer at each pH in the pH range of from 2 to 11 so that the final probe concentration became 1 μM, and the final DMSO concentration became 1%. The fluorescence spectrum of the measurement solution was measured at an excitation wavelength of 490 nm.

[2] = target: T1, calpain-1 from human erythrocytes (Homo sapiens, UniProt P07384); test: Reactivity with calpain-1: absorption/fluorescence spectra and HPLC; format: biochemical; conditions: 5 μM probe, calpain-1 100 units
T1 construct: calpain-1 from human erythrocytes; purchased Merck Millipore 208713; host or cells: human erythrocytes (natural source)
T1 sequence (P07384 1-714): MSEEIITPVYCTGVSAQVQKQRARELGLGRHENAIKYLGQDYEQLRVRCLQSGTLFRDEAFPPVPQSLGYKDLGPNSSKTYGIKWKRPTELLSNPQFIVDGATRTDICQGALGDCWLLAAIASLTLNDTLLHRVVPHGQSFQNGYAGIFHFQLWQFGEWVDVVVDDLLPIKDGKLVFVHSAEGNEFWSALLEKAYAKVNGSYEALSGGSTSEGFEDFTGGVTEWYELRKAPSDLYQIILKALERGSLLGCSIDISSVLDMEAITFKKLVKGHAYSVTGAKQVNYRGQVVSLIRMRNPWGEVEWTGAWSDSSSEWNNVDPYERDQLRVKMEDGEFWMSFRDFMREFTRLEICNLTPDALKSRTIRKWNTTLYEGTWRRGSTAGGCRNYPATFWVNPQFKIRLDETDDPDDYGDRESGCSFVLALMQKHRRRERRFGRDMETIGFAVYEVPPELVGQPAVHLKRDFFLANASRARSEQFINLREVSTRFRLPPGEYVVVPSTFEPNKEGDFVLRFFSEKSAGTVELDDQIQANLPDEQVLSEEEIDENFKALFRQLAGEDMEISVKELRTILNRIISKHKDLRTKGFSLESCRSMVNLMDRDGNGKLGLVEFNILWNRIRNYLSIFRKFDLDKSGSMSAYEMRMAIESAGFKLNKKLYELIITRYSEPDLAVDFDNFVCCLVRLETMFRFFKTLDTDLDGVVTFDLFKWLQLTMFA
T1 sequence (P04632 1-268 partner): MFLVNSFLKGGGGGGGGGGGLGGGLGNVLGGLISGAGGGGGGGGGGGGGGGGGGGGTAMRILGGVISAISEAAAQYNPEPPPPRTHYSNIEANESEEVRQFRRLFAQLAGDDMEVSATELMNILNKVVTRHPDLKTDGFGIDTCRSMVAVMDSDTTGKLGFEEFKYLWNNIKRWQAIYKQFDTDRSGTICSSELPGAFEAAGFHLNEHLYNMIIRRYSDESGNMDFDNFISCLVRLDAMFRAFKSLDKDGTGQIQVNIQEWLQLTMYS
Experimental: Calpain-1 was caused to act on Compound 19, and changes in absorption spectrum and fluorescence spectrum thereof were measured. Specifically, a solution (0.5 mM) of Compound 19 in DMSO and calpain-1 (100 units) (calpain-1 from human erythrocytes, Cat. No. 208713, Merck Millipore, the same holds true for the following) were added to a 50 mM TRIS buffer (pH: 7.4, 5 mM CaCl2, 100 mM NaCl, 1 mM EGTA) to produce 2 mL of a reaction solution (final probe concentration: 5 μM). An enzyme reaction was performed at 37° C. The fluorescence spectrum of the reaction solution was measured at an excitation wavelength of 490 nm. In addition, the reaction solution was analyzed by HPLC chromatography. Compound 19 to which calpain-1 was not added (final concentration: 5 μM) was used as a control.

retinal ganglion cells = test: Glutamic acid injury of retinal ganglion cells isolated from iPS cell-derived retinal tissue; format: cell-based, human; conditions: glutamic acid 300 μM, probe 5 μM added 1 hour later, imaged 1 hour thereafter; FIG. 24
Experimental: A glutamic acid injury model that activated a calpain to induce a retinal ganglion cell injury was produced from the iPS cell-derived three-dimensional stereoscopic retinal tissue, and calpain activity with Compound 19 was evaluated by using the model. First, to identify a retinal ganglion cell injury caused by a glutamic acid injury, retinal ganglion cells were isolated from the iPS cell-derived three-dimensional stereoscopic retinal tissue with auto MACS pro (trademark) and CD90 MicroBeads. Glutamic acid (final concentration: 300 μM) was added to the cells to be caused to react therewith for 1 hour. Compound 19 (final concentration: 5 μM) was added thereto 1 hour after the addition of glutamic acid, and images of the state and fluorescence of the cells were taken (RGB and B/W modes) with a fluorescence microscope (ZEISS Axio Vert.A1) 1 hour thereafter.

[3] = target: T2, recombinant human cathepsin B (Homo sapiens, UniProt P07858); test: Fluorescence assay with cathepsin B; format: biochemical; conditions: 10 μM probe, 880 ng/mL cathepsin B, 50 mM TRIS pH 7.4, 37° C., excitation 475 nm, fluorescence 500-550 nm; FIG. 37
T2 construct: purchased R&D Systems 953-CY
Experimental: The fluorescence assay of Compound 19 with time was performed. Specifically, 880 ng/mL of recombinant human cathepsin B (953-CY; R&D Systems, MN, USA) was added to a 50 mM TRIS buffer (pH: 7.4, 2 mM EGTA, 2 mM DTE) containing 10 μM of the synthesized fluorescent probe to perform an enzyme reaction at 37° C. The same operations as those described above except that cathepsin B was not added were performed as a negative control. The results of the measurement of a change in fluorescence intensity with time by cathepsin B are shown in FIG. 37 (excitation wavelength: 475 nm, fluorescence wavelength: from 500 nm to 550 nm).

Compound: COCC(=O)N[C@@H](CC(C)C)C(=O)N[C@@H](CCSC)C(=O)Nc1ccc2c(c1)Oc1cc(N)ccc1C21OCc2ccccc21 (some centres unmarked) [Compound 19]
- absorption spectrum and fluorescence spectrum at each pH [1]: mainly colorless and nonfluorescent
- changes in absorption spectrum and fluorescence spectrum by addition of calpain-1 ([2]; 50 mM TRIS pH 7.4, 5 mM CaCl2, 37° C., excitation 490 nm): increases in absorbance and fluorescence intensity
- change in HPLC chromatogram by addition of calpain-1 (reaction product) ([2]; 37° C.): produced HMRG serving as a fluorescent substance
- fluorescence of isolated retinal ganglion cells (retinal ganglion cells): enhancement of the fluorescence
- change in fluorescence intensity with time by cathepsin B [3]: functioned as a fluorescent probe for cathepsin B
